According to patent publication US12391646B2, “Using adiponectin receptor agonists to treat inflammation and bone diseases in diabetes” (Trustees of Tufts College, priority 2020, dated 2025):

Tests used:
[1] = system: RAW 264.7 cells in high glucose medium; test: Osteoclastogenesis and autophagy of RANKL-treated RAW 264.7 cells in high glucose medium; type: cell-based; conditions: for RANKL-induced mRNA expression of Cathepsin K and TRAP: high glucose 25 mM, AdipoRon 20 μM; for LC3 mRNA, LC3II protein and LC3 puncta: high glucose medium with RANKL
Protocol: FIG. 20 RAW 264.7 cells were treated with RANKL (100 ng/ml) with or without AdipoRon ([…]) or AdipoAI (5 μM) in low (5 mmol/l) glucose, 20 mmol/l D-mannitol or high (25 mmol/l) glucose medium. qRT-PCR analysis of cathepsin K (A), TRAP (B) and microtubule associated protein 1 light chain 3 (LC3) (C), and mRNA expression were calculated (n≥3). (D) Western blot analysis of LC3A/B protein levels normalized to β-actin. (E) The mean of protein/β-actin ratios normalized to 1.0 (RANKL-AdipoRon-AdipoAI-H group) quantified by densitometry. (F) Autophagosome images obtained with laser confocal microscopy after the RAW 264.7 cells were transfected with a GFP-LC3 plasmid and treated with RANKL and AdipoRon or AdipoAI (scale bar=50 μm). Data are shown as mean±SD. *, P<0.05. **P<0.01. ***P<0.001.
FIG. 21 Autophagy inhibitor reverses AdipoAI-inhibited osteoclastogenesis in high glucose medium. RAW 264.7 cells were treated with RANKL (100 ng/ml) in 2 days and with or without AdipoAI (5 μM) for 24 hours followed by 3-methyladenine (3-MA, 2.5 mM) treatment for another 24 hours in high glucose medium. qRT-PCR analysis of cathepsin K (A), TRAP (B) and LC3 (C) mRNA expression were calculated (n≥3). (D) Western blot analysis of LC3A/B protein levels normalized to β-actin. (E) The mean of protein/β-actin ratios normalized to 1.0 (3-MA-, RANKL-, AdipoAI-group) quantified by densitometry. Data are shown as mean±SD. *, P<0.05. **P<0.01. ***P<0.001.
FIG. 22 AdipoAI-induced autophagy of osteoclasts in high glucose medium via AKT1/mTOR signaling pathway. RAW 264.7 cells were induced with RANKL for 2 days and then treated with or without (5 μM) additional 24 hours after serum starvation for 4 hours. Then, the cells were treated with RANKL, AdipoAI or SC79 (5 μM), an AKT activator, for another 24 hours in high glucose medium. qRT-PCR analysis of mRNA expression of cathepsin K (A), TRAP (B) and LC3 (C) were calculated (n≥3). (D) Representative images show the protein expression levels of AKT, p-AKT, AKT1, p-AKT1, mTOR, p-mTOR, and LC3A/B in osteoclasts. Quantitative analysis of bands is shown in (E-K) (n≥3). Data are shown as mean±SD. *, P<0.05. **P<0.01. ***P<0.001. R: RANKL. A, AI: AdipoAI. SC5: SC79 (5 μM).
(§1) RAW 264.7 cells (ATCC, Manassas, VA, USA) were cultured and passaged in DMEM supplemented with 10% (v/v) FBS (Invitrogen, Grand Island, NY, USA) and 1% Penicillin-Streptomycin (Gibco, Gaithersburg, MD, USA). For the induction of osteoclastogenesis, RAW 264.7 cells were cultured 24 in α-MEM supplemented with 10% FBS and 1% Penicillin-Streptomycin in the presence of 100 ng/ml RANKL (Peprotech, Rocky Hill, NJ, USA) for 2 days, and subsequently treated or not with AdipoRon or AdipoAI for another 2 days changing cell culture medium every 2 days. After a total of […] of culture, morphologic examination was performed, as was mRNA and protein expression. To simulate high glucose environment in vitro, α-MEM was supplemented with D-glucose to 25 mmol/l (high glucose) or 5 mmol/l (physiological glucose). 20 mmol/l D-mannitol served as an osmotic control.
(§2) Total RNA was isolated from cell cultures and gingival soft tissues using TriZol reagent (Life Technologies, Carlsbad, CA, USA) according to the manufacturer's instructions^24. Reverse transcription was performed using the PrimeScript RT Master Mix (Takara Bio, Otsu, Japan) and real-time-qPCR analyses were performed using SYBR-Green Real-Time PCR Master Mix (Takara Bio, Otsu, Japan) as described earlier^27.
Total cellular extracts were prepared using RIPA Lysis and Extraction Buffer containing three Protease Inhibitors (Santa Cruz, Dallas, TX, USA). Western blot analyses were performed as previously described 24. Antibodies for β-actin (1:2000) and GAPDH (1:5000), LC3A/B (1:1000), AKT1 (1:1000), p-AKT1 (1:1000), AKT (1:1000), p-AKT (1:1000), mTOR (1:1000), p-mTOR (1:1000) were purchased from Abcam and Cell Signaling Technology, respectively. SC79, an AKT activator was purchased from Sigma Aldrich. […]

[2] = system: RAW 264.7 cells (osteoclast differentiation); test: RANKL-induced osteoclast differentiation of RAW 264.7 cells; type: cell-based; conditions: for number of osteoclast-like cells (TRAP staining): co-culture with RANKL 6 days, AdipoRon 20 μM, AdipoAI 5 μM
Protocol: as §1, §2

[3] = higher concentration, RANKL 100 ng/ml
[4] = AdipoAI 5 μM, RANKL, high glucose medium

| Structure (SMILES) | RANKL-induced mRNA expression of Cathepsin K and TRAP ([1]; AdipoAI 5 μM) | LC3 mRNA, LC3II protein and LC3 puncta [1] | downregulation of TRAP mRNA expression ([2]; 5 μM, RANKL 100 ng/ml) | number of osteoclast-like cells (TRAP staining) [2] | inhibition of TRAP mRNA expression [2, 3] | inhibition of cathepsin K mRNA expression [2, 3] | expression of AKT [1, 4] | expression of LC3II [1, 4] | reduction of phosphorylation of AKT [1, 4] | reduction of phosphorylation of AKT1 [1, 4] | reduction of phosphorylation of mTOR [1, 4] | downregulation of cathepsin K mRNA expression ([2]; 5 μM, RANKL 100 ng/ml) |
| --- | --- | --- | --- | --- | --- | --- | --- | --- | --- | --- | --- | --- |
| O=C(COc1ccc(C(=O)c2ccccc2)cc1)NC1CCN(Cc2ccccc2)CC1 [AdipoRon, reference compound] | decreased the RANKL-induced mRNA expression of osteoclastogenesis markers | increased the mRNA expression of LC3, protein expression of LC3II and LC3 puncta | no significant inhibition in TRAP mRNA expression | significantly reduced the number of osteoclast-like cells | 64.5% | 65.1% | – | – | – | – | – | – |
| COc1ccc(CN2CCC(NC(=O)COc3ccc(C(=O)c4ccc(Cl)cc4)cc3)CC2)cc1 [Compound 3] | decreased the RANKL-induced mRNA expression of osteoclastogenesis markers | increased the mRNA expression of LC3, protein expression of LC3II and LC3 puncta | 97.0% | significantly reduced the number of osteoclast-like cells | – | – | inhibits the expression of AKT | promotes the expression of LC3II | 21% | 40% | 25% | 87.5% |
